{"source": "patent US6942970B2", "about": "“Identifying subjects suitable for topoisomerase II inhibitor treatment” (Zymed Laboratories, Inc., priority 2000, dated 2005)", "origin": "cited, not measured here", "system": "advanced breast cancer", "details": "first-line chemotherapy, advanced breast cancer patients"}
{"smiles": "COc1cccc2c1C(=O)c1c(O)c3c(c(O)c1C2=O)C[C@@](O)(C(=O)CO)C[C@@H]3O[C@H]1C[C@H](N)[C@@H](O)[C@H](C)O1", "note": "[epirubicin]", "values": [{"measurement": "response rate (CR+PR)", "result": 48, "unit": "%"}]}
